Measurements from article PMC9516332 (Frontiers in Oncology, 2022).
Read-outs that look alike come from different tables or passages of the source.

Assays:
Assay in all cases: Kinase panel profiling at 1 µmol/L (MSA or IMAP), percentage inhibition
Type in all cases: biochemical
[1] = biological target: T1, panel of 255 wild-type kinases (Homo sapiens, UniProt Q9HBY8); details: read-out: %-inhibition at 1 µmol/L, SGK2
T1 sequence (Q9HBY8 1-367): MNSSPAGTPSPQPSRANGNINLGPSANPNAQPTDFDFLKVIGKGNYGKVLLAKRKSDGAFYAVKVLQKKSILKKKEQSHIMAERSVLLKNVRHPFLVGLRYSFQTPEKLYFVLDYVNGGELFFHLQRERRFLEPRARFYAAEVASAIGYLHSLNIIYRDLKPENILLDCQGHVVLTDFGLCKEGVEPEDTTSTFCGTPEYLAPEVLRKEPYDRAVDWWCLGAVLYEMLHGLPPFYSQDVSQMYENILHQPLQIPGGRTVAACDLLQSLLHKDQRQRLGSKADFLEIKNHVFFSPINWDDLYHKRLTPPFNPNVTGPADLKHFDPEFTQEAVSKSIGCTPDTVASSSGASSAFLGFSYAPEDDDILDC

[2] = biological target: panel of 255 wild-type kinases (Homo sapiens, UniProt P22607); details: read-out: %-inhibition at 1 µmol/L, FGFR3
[3] = biological target: T2, panel of 255 wild-type kinases (Homo sapiens, UniProt P15735); details: read-out: %-inhibition at 1 µmol/L, PHKG2
T2 sequence (P15735 1-406): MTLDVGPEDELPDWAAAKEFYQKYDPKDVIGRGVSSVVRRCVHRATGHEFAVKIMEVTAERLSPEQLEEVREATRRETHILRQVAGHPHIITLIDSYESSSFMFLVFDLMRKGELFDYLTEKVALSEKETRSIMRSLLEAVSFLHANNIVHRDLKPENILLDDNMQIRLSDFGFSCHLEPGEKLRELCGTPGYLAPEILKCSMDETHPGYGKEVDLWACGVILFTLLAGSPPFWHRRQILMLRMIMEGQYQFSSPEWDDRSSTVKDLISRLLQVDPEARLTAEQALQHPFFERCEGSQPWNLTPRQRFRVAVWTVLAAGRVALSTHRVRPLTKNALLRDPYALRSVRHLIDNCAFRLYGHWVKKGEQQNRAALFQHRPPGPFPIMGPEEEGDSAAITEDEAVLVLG

[4] = biological target: T3, panel of 255 wild-type kinases (Homo sapiens, UniProt P29320); details: read-out: %-inhibition at 1 µmol/L, EPHA3
T3 sequence (P29320 21-983): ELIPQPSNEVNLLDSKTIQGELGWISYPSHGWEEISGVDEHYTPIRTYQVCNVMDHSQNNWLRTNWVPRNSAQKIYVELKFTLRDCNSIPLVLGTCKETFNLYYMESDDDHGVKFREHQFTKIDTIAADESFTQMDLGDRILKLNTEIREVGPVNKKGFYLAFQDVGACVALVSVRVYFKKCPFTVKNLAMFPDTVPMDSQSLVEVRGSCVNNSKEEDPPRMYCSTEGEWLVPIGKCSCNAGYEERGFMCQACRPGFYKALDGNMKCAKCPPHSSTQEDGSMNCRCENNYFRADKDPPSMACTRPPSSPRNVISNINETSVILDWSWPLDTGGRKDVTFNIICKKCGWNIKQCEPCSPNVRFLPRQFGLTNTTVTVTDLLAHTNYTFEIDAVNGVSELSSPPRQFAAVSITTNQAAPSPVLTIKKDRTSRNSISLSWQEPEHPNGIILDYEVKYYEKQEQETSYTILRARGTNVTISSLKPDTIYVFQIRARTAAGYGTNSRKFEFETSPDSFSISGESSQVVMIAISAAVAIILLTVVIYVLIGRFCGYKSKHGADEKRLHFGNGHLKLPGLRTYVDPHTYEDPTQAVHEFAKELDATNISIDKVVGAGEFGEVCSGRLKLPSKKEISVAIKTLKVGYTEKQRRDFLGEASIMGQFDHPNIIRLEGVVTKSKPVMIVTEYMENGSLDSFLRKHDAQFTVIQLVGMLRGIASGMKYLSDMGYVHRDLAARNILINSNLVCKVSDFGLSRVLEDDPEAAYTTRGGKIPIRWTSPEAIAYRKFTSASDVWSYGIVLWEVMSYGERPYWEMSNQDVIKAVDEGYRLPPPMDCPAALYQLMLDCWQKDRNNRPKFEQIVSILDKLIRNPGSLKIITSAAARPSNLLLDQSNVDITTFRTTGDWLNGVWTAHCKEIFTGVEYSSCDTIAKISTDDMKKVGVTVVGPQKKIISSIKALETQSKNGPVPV

[5] = biological target: panel of 255 wild-type kinases (Homo sapiens, UniProt O96013); details: read-out: %-inhibition, PAK4
[6] = biological target: panel of 255 wild-type kinases (Homo sapiens, UniProt P12931); details: read-out: %-inhibition at 1 µmol/L, SRC
[7] = biological target: panel of 255 wild-type kinases (Homo sapiens, UniProt P50750); details: read-out: %-inhibition CDK9/CycT1
[8] = biological target: T4, panel of 255 wild-type kinases (Homo sapiens, UniProt Q9UQB9); details: read-out: %-inhibition AurC
T4 sequence (Q9UQB9 1-309): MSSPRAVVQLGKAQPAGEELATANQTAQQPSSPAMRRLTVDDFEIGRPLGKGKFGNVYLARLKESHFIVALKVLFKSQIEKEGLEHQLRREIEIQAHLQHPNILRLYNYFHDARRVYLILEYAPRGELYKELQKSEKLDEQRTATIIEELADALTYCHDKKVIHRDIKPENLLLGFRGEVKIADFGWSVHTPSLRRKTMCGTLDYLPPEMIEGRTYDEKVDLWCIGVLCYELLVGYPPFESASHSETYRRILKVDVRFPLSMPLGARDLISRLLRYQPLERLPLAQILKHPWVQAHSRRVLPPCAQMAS

[9] = kinase SGK2, 1 µmol/L single concentration
[10] = kinase FGFR3, 1 µmol/L single concentration
[11] = kinase PHKG2, 1 µmol/L single concentration
[12] = kinase EPHA3, 1 µmol/L single concentration
[13] = PAK4, 1 µmol/L single concentration
[14] = kinase SRC, 1 µmol/L single concentration
[15] = CDK9/CycT1 kinase assay, 1 µmol/L single concentration
[16] = AurC kinase assay, 1 µmol/L single concentration

inhibition at 1 µM [1, 9] [%]	inhibition at 1 µM [3, 11] [%]	inhibition at 1 µM [4, 12] [%]	inhibition at 1 µM [5, 13] [%]	inhibition at 1 µM [6, 14] [%]	inhibition at 1 µM [7, 15] [%]	inhibition at 1 µM [8, 16] [%]	SMILES	inhibition at 1 µM [2, 10] [%]	inhibition at 1 µM [2] [%]	inhibition at 1 µM [1] [%]	inhibition at 1 µM [3] [%]	inhibition at 1 µM [4] [%]	inhibition at 1 µM [5] [%]	inhibition at 1 µM [6] [%]	inhibition at 1 µM [7] [%]	inhibition at 1 µM [8] [%]
-5	3.3	-8	4.6	-2.83	-2.15	-0.456	Cn1cnc2c(F)c(Nc3ccc(Br)cc3Cl)c(C(=O)NOCCO)cc21 [selumetinib]	2.76								
10	6.5	49	8	48	2.54	80	COc1ccc(CN2C3CC2CN(c2ccc(-c4cc(OCC(C)(C)O)cn5ncc(C#N)c45)cn2)C3)cn1 [selpercatinib]	95								
-4	5.63	0.702	-4.61	-4.39	-0.399	-0.0475	O=C(Nc1cnn2ccc(N3CCC[C@@H]3c3cc(F)ccc3F)nc12)N1CC[C@H](O)C1 [larotrectinib]		1.36							
							CNC(=O)c1ccc(-c2cnc3ncc(Cc4ccc5ncccc5c4)n3n2)cc1F [capmatinib]		2	-5.54	0.266	-9	1	-1.77	-0.278	-4.72
-2.27	0.785	0.475	0.277	-1.74	-0.441	10	C[C@H](Nc1ncnc2nc[nH]c12)c1cc2cccc(Cl)c2c(=O)n1-c1ccccc1 [duvelisib]	0.29								
11	2.24	32	66	94	6	36	CO[C@]1(C(=O)N[C@@H](C)c2ccc(-n3cc(F)cn3)nc2)CC[C@H](c2nc(C)cc(Nc3cc(C)[nH]n3)n2)CC1 [pralsetinib]	96								
-4	-0.185	-10	5	-2	1.53	-5.26	Cc1cc(Nc2ncnc3ccc(NC4=NC(C)(C)CO4)cc23)ccc1Oc1ccn2ncnc2c1 [tucatinib]	2.63								
-0.294	-3.26	0.248	-2.71	-0.525	-1.47	-6.37	Cn1cnc2c(F)c(Nc3ccc(Br)cc3F)c(C(=O)NOCCO)cc21 [binimetinib]	1.4								
-2	1.64	-0.173	0.0966	3.29	-0.929	4.51	Cc1nc(NC(=O)N2CCC[C@H]2C(N)=O)sc1-c1ccnc(C(C)(C)C(F)(F)F)c1 [alpelisib]	3.39								

SMILES	inhibition at 1 µM [1, 9] [%]	inhibition at 1 µM [3, 11] [%]	inhibition at 1 µM [4, 12] [%]	inhibition at 1 µM [5, 13] [%]	inhibition at 1 µM [6, 14] [%]	inhibition at 1 µM [7, 15] [%]	inhibition at 1 µM [8, 16] [%]	inhibition at 1 µM [2, 10] [%]	inhibition at 1 µM [2] [%]	inhibition at 1 µM [1] [%]	inhibition at 1 µM [3] [%]	inhibition at 1 µM [4] [%]	inhibition at 1 µM [5] [%]	inhibition at 1 µM [6] [%]	inhibition at 1 µM [7] [%]	inhibition at 1 µM [8] [%]
CCN1C(=O)N(c2c(F)c(OC)cc(OC)c2F)Cc2cnc3[nH]c(CN4CCOCC4)cc3c21 [pemigatinib]	8	8	0.534	-1.88	2.67	7	5	100								
FC(F)(F)c1ccc(CNc2ccc(Cc3c[nH]c4ncc(Cl)cc34)cn2)cn1 [pexidartinib]	8	4.25	2.11	11	0.371	7	68	68								
C=CC(=O)N1CCC([C@@H]2CCNc3c(C(N)=O)c(-c4ccc(Oc5ccccc5)cc4)nn32)CC1 [zanubrutinib]	-2.33	4.22	-0.0989	-11		-1.15	-0.855	4.61								
C[C@H]1Oc2cc(cnc2N)-c2c(nn(C)c2C#N)CN(C)C(=O)c2ccc(F)cc21 [lorlatinib]	4.34	92	4.35	1.84	28	-2.48	19	-0.405								
CCN1CCN(c2ccc(Nc3cc(N(C)C(=O)Nc4c(Cl)c(OC)cc(OC)c4Cl)ncn3)cc2)CC1 [infigratinib]	-8	1.64	-0.311	6	37	-0.383	-7.58	102								
COC(=O)N[C@@H](C)CNc1nccc(-c2cn(C(C)C)nc2-c2cc(Cl)cc(NS(C)(=O)=O)c2F)n1 [encorafenib]	3.5	-1.79	4	-2.13	-2.16	-1.11	-10	1								
CN1CCN(c2ccc(C(=O)Nc3n[nH]c4ccc(Cc5cc(F)cc(F)c5)cc34)c(NC3CCOCC3)c2)CC1 [entrectinib]	-3.18	41	30		95	1.79	67	90								
